The data set is described as follows: Biopharmaceutical properties of rivastigmine in humans. Type of data set: in vivo.

For the compound `CCN(C)C(=O)Oc1cccc([C@H](C)N(C)C)c1` [Rivastigmine], the absorption entry is “rapidly and completely absorbed”. In addition, the metabolism result (esterases, e.g., acetyl and butyryl cholinesterase) is reported as “metabolised mainly through hydrolysis by esterases”.

Source of the values: patent US20110038897A1, “ORAL CONTROLLED RELEASE FORMULATIONS” (priority 1999, published 2011).
